According to patent publication US8153385B2, “Target protein and target gene in drug designing and screening method” (Reverse Proteomics Research Institute Co., Ltd., priority 2004, dated 2012):
Where a name gives a salt, the structure may show the parent alone.

Molecular target: T1, FLJ13397 clone-derived protein (CARP) (Homo sapiens, UniProt Q9H8M7)
T1 construct: A human full-length cDNA clone was expressed as a protein with an N-terminal His tag; His tag (pDEST17 Gateway vector) (N); made in house; host or cells: Escherichia coli BL21star(DE3)pLysS
T1 sequence (Q9H8M7 1-445): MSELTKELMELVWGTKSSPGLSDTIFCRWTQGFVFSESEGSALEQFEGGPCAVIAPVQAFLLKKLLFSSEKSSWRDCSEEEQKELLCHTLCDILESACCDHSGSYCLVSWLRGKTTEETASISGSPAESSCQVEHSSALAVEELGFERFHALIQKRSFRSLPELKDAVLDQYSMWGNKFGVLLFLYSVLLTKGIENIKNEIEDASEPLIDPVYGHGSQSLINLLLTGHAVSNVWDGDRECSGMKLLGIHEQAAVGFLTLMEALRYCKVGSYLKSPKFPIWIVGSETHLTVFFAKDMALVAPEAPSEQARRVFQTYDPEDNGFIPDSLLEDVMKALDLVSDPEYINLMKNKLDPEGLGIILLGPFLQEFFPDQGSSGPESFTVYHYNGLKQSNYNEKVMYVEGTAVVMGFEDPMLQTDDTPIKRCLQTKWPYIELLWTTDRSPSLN
Assay: SEC/MS (size exclusion chromatography / mass analysis) interaction analysis between FLJ13397 clone-derived protein and compounds
Assay type: binding
Method: BP-reaction was performed on human full-length cDNA clone and the cloning vector Gateway pDONR201 by the PCR cloning method using the Invitrogen Gateway system to yield an entry clone. LR-reaction was performed on this entry clone with the destination vector pDEST17 (Gateway System) and LR Clonase at 25° C. for 60 minutes to yield an expression plasmid. Escherichia coli competent cell BL21star(DE3)pLysS were transformed with this expression plasmid, a clone incorporating the expression vector was selected, and a frozen stock was prepared. The transformant was inoculated into LB medium and precultured, after which it was transferred into SB medium and cultured to induce the expression by IPTG, and the cells were stored frozen.
A human full-length cDNA clone was expressed as a protein with an N-terminal His tag. This clone was purified using BioRobot 8000 (Qiagen) or ACTA Crystal (Amersham). […] In the purification with ACTA Crystal, affinity purification using a HisTrap HP column was followed by gel filtration purification using the Gel Filtration Column HiLoad 16/60 or a 10/30 Superdex 75 prep grade column. The purified fraction was used for interaction analysis after being subjected to SDS-PAGE to verify the estimated molecular weight and purity.
To analyze the interactions between commonly used drugs and proteins expressed from human full-length cDNA clones while keeping both the proteins and the compounds in non-modified, non-immobilized state, size exclusion chromatography (SEC) and mass analysis were used in combination (FIGS. 1 and 2). The specific procedures are shown below.
The compound-protein mixture prepared in step 1 was subjected to chromatography using an SEC column, the compound and the protein were separated by SEC, and the bound compound or compound that interacted with the protein in the protein fraction was analyzed using a mass analyzer.
Protein concentrations were measured using BCA Protein Assay (PIERCE), in consideration of the purity calculated by SDS-PAGE.
Mass analysis was performed using LCQ DECA XP (Thermoelectron) or Q-TOFmicro (Micromass), equipped with an ESI probe. The LC pump used was Agilent 1100 (Yokogawa Analytical Systems), and the autosampler used was HTC-PAL (CTC Analytics) equipped with a cooling stacker.
In the SEC method using a 384-well spin column, Unifilter 100 (Whatman), packed with 10 μL (dry volume) of Bio-Gel P6 (BIO-RAD) and swollen with milliQ water, was used as the SEC column. […] The SEC spin column was mounted on an acetonitrile-aliquoted 384-well U-bottom plate and centrifuged; the SEC spin column filtrate, which is a protein fraction, was retrieved in 50% acetonitrile. The protein precipitate produced by the acetonitrile was removed via centrifugation and filtration for protein removal; the resulting filtrate was concentrated by centrifugation and re-dissolved in 10 μL of 50% methanol to obtain a mass analysis sample. The mobile phase supplied to the mass analyzer was 0.1% formic acid/50% methanol solution in the positive ion mode, and 0.1% ammonia/50% methanol solution in the negative ion mode; these mobile phases were used at a flow rate of 40 μL/min. 2-μL of mass analysis samples were injected using an autosampler at 2-Minute intervals; the mass spectral intensity of the compound was measured to obtain the spectral intensity of the pharmaceutical compound contained in the SEC spin column filtrate (protein fraction eluted from SEC).

[1] = compound 1 μM, protein 0 μM (protein-free reference)
[2] = compound 1 μM, protein 23.75 μM
[3] = compound 10 μM, protein 0 μM (protein-free reference)
[4] = compound 10 μM, protein 23.75 μM
[5] = compound 10 μM, protein 47.5 μM
[6] = compound 100 μM, protein 0 μM (protein-free reference)
[7] = compound 100 μM, protein 23.75 μM
[8] = compound 100 μM, protein 47.5 μM
[9] = compound 250 μM, protein 0 μM (protein-free reference)
[10] = compound 250 μM, protein 23.75 μM
[11] = compound 250 μM, protein 47.5 μM

## CC[C@@H](C(=O)[C@@H](C)[C@@H](O)[C@H](C)CCc1ccc(C)c(O)c1C(=O)O)[C@H]1O[C@](CC)([C@H]2CC[C@](O)(CC)[C@H](C)O2)C[C@@H]1C [Lasalocid sodium salt]
[1]
  spectrum intensity of the extracted mass range (compound in SEC spin column filtrate): 9674294
[2]
  spectrum intensity of the extracted mass range (compound in SEC spin column filtrate): 11601595
Compound 1 μM, protein 47.5 μM
  spectrum intensity of the extracted mass range (compound in SEC spin column filtrate): 10467838
[3]
  spectrum intensity of the extracted mass range (compound in SEC spin column filtrate): 13154726
[4]
  spectrum intensity of the extracted mass range (compound in SEC spin column filtrate): 20062681
[5]
  spectrum intensity of the extracted mass range (compound in SEC spin column filtrate): 46504126
[6]
  spectrum intensity of the extracted mass range (compound in SEC spin column filtrate): 945932706
[7]
  spectrum intensity of the extracted mass range (compound in SEC spin column filtrate): 2538387120
[8]
  spectrum intensity of the extracted mass range (compound in SEC spin column filtrate): 3226817361
[9]
  spectrum intensity of the extracted mass range (compound in SEC spin column filtrate): 2174989976
[10]
  spectrum intensity of the extracted mass range (compound in SEC spin column filtrate): 9287976762
[11]
  spectrum intensity of the extracted mass range (compound in SEC spin column filtrate): 9802098210

## COC(=O)Nc1nc2ccc(C(=O)c3ccccc3)cc2[nH]1 [Mebendazole]
[1]
  spectrum intensity of the extracted mass range (compound in SEC spin column filtrate): 495347
[2]
  spectrum intensity of the extracted mass range (compound in SEC spin column filtrate): 480780
Compound 1 μM, protein 47.5 μM
  spectrum intensity of the extracted mass range (compound in SEC spin column filtrate): 495499
[3]
  spectrum intensity of the extracted mass range (compound in SEC spin column filtrate): 525296
[4]
  spectrum intensity of the extracted mass range (compound in SEC spin column filtrate): 777305
[5]
  spectrum intensity of the extracted mass range (compound in SEC spin column filtrate): 725295
[6]
  spectrum intensity of the extracted mass range (compound in SEC spin column filtrate): 482901
[7]
  spectrum intensity of the extracted mass range (compound in SEC spin column filtrate): 15054045
[8]
  spectrum intensity of the extracted mass range (compound in SEC spin column filtrate): 9517765
[9]
  spectrum intensity of the extracted mass range (compound in SEC spin column filtrate): 444136
[10]
  spectrum intensity of the extracted mass range (compound in SEC spin column filtrate): 32097734
[11]
  spectrum intensity of the extracted mass range (compound in SEC spin column filtrate): 43484997

## COC(=O)Nc1nc2ccc(C(=O)c3cccs3)cc2[nH]1 [Nocodazole]
[1]
  spectrum intensity of the extracted mass range (compound in SEC spin column filtrate): 8235638
[2]
  spectrum intensity of the extracted mass range (compound in SEC spin column filtrate): 5202611
Compound 1 μM, protein 47.5 μM
  spectrum intensity of the extracted mass range (compound in SEC spin column filtrate): 3977550
[3]
  spectrum intensity of the extracted mass range (compound in SEC spin column filtrate): 4879694
[4]
  spectrum intensity of the extracted mass range (compound in SEC spin column filtrate): 6159010
[5]
  spectrum intensity of the extracted mass range (compound in SEC spin column filtrate): 9316181
[6]
  spectrum intensity of the extracted mass range (compound in SEC spin column filtrate): 6162151
[7]
  spectrum intensity of the extracted mass range (compound in SEC spin column filtrate): 33749400
[8]
  spectrum intensity of the extracted mass range (compound in SEC spin column filtrate): 37180973
[9]
  spectrum intensity of the extracted mass range (compound in SEC spin column filtrate): 9512433
[10]
  spectrum intensity of the extracted mass range (compound in SEC spin column filtrate): 131043824
[11]
  spectrum intensity of the extracted mass range (compound in SEC spin column filtrate): 227971112

## COC(=O)Nc1nc2ccc([S+]([O-])c3ccccc3)cc2[nH]1 (stereo not shown) [Oxfendazole]
[1]
  spectrum intensity of the extracted mass range (compound in SEC spin column filtrate): 23723676
[2]
  spectrum intensity of the extracted mass range (compound in SEC spin column filtrate): 29471243
Compound 1 μM, protein 47.5 μM
  spectrum intensity of the extracted mass range (compound in SEC spin column filtrate): 35025210
[3]
  spectrum intensity of the extracted mass range (compound in SEC spin column filtrate): 28662280
[4]
  spectrum intensity of the extracted mass range (compound in SEC spin column filtrate): 41004899
[5]
  spectrum intensity of the extracted mass range (compound in SEC spin column filtrate): 42911925
[6]
  spectrum intensity of the extracted mass range (compound in SEC spin column filtrate): 106348780
[7]
  spectrum intensity of the extracted mass range (compound in SEC spin column filtrate): 160312456
[8]
  spectrum intensity of the extracted mass range (compound in SEC spin column filtrate): 180803127
[9]
  spectrum intensity of the extracted mass range (compound in SEC spin column filtrate): 128622627
[10]
  spectrum intensity of the extracted mass range (compound in SEC spin column filtrate): 264420112
[11]
  spectrum intensity of the extracted mass range (compound in SEC spin column filtrate): 506800735

## CCCOc1ccc2nc(NC(=O)OC)[nH]c2c1 [Oxibendazole]
[1]
  spectrum intensity of the extracted mass range (compound in SEC spin column filtrate): 570160
[2]
  spectrum intensity of the extracted mass range (compound in SEC spin column filtrate): 595458
Compound 1 μM, protein 47.5 μM
  spectrum intensity of the extracted mass range (compound in SEC spin column filtrate): 529117
[3]
  spectrum intensity of the extracted mass range (compound in SEC spin column filtrate): 525337
[4]
  spectrum intensity of the extracted mass range (compound in SEC spin column filtrate): 3533115
[5]
  spectrum intensity of the extracted mass range (compound in SEC spin column filtrate): 9671167
[6]
  spectrum intensity of the extracted mass range (compound in SEC spin column filtrate): 1292692
[7]
  spectrum intensity of the extracted mass range (compound in SEC spin column filtrate): 7303166
[8]
  spectrum intensity of the extracted mass range (compound in SEC spin column filtrate): 8921904
[9]
  spectrum intensity of the extracted mass range (compound in SEC spin column filtrate): 2449247
[10]
  spectrum intensity of the extracted mass range (compound in SEC spin column filtrate): 20401030
[11]
  spectrum intensity of the extracted mass range (compound in SEC spin column filtrate): 13559202

## CC(C)(C)c1ccc(C(O)CCCN2CCC(C(O)(c3ccccc3)c3ccccc3)CC2)cc1 (stereo not shown) [Terfenadine]
[1]
  spectrum intensity of the extracted mass range (compound in SEC spin column filtrate): 1817431
[2]
  spectrum intensity of the extracted mass range (compound in SEC spin column filtrate): 1889743
Compound 1 μM, protein 47.5 μM
  spectrum intensity of the extracted mass range (compound in SEC spin column filtrate): 1281933
[3]
  spectrum intensity of the extracted mass range (compound in SEC spin column filtrate): 2641416
[4]
  spectrum intensity of the extracted mass range (compound in SEC spin column filtrate): 9434699
[5]
  spectrum intensity of the extracted mass range (compound in SEC spin column filtrate): 8393491
[6]
  spectrum intensity of the extracted mass range (compound in SEC spin column filtrate): 241452949
[7]
  spectrum intensity of the extracted mass range (compound in SEC spin column filtrate): 175843248
[8]
  spectrum intensity of the extracted mass range (compound in SEC spin column filtrate): 549040113
[9]
  spectrum intensity of the extracted mass range (compound in SEC spin column filtrate): 644365611
[10]
  spectrum intensity of the extracted mass range (compound in SEC spin column filtrate): 1389061661
[11]
  spectrum intensity of the extracted mass range (compound in SEC spin column filtrate): 1700398168
Judged from increase of spectrum intensity with doses of compound and protein
  interaction with the FLJ13397-expressed protein (judgement): concentration-dependent interaction
